One data set relates to human APOC3. Briefly: 18-mer with internal spacer RNAi agents, residual mRNA in Huh7 at 15 nM. The data set is classed as cell-based. From the text: In the various RNAi agents described in this example, a nucleotide at any of positions 1 to 18 was individually replaced by a spacer subunit, and RNA interference activity was retained. The 3′ end of each strand terminates in a phosphate or modified internucleoside linker and further comprises, in 5′ to 3′ order, a second spacer, a second phosphate or modified internucleotide linker, and a 3′ end cap.
Similarly, U027, A027, G027 indicate that the nucleotides U, A or G, respectively, are absent and have been replaced by a spacer, which is ribitol. The target used in human APOC3. The numbers in columns 2 represent residual mRNA levels; thus, 5.8 in column 2, row 2, indicates residual mRNA level of 5.8% or 94.2% gene knockdown. SD, standard deviation.

The test system of the next data set is FVII (Factor VII). Briefly: RNA interference of 3′-capped mF7-III siRNAs against FVII (FIG. 2). The data set is classed as cell-based, mouse. Particulars: 19-mer blunt-ended mF7-III siRNA, A12S17.
The test system of the next data set is Hepcidin (HAMP) mRNA. Briefly: Hepcidin mRNA down regulation in HuH-7 cells by 18-mer HAMP siRNA-PAZ ligand conjugates. The data set is classed as cell-based, Homo sapiens. Particulars: format S402+ribitol+MOE clamp. From the text: Potency of 18-mer HAMP (Hepcidin) siRNA-PAZ Ligand Conjugates is studied.
A variety of constructs were made using the same two sequences. […] A variety of 3′ end caps is also used.
Hepcidin mRNA down regulation in HuH-7 cells is studied at 3 doses.
Two test sequences used are hs_HAMP_400 and 402. “hs” indicates “Homo sapiens”. 400 is a sequence beginning at position 400 and 402 is an overlapping sequence […]
Various other hs_HAMP 400 and 402 are depicted in FIG. 5A (Guide or antisense strand) and 5B (corresponding Sense strand).
This Table indicates the Nickname (“Oligo Identifier”) for the 3′ end cap, and the DMT, Succinate and Carboxylate variants thereof; the Carboxylate Kd; the KD (knockdown) mediated by a Hepcidin RNAi agent comprising the 3′ end cap (format: S402+ribitol+MOE clamp) at 5 nM in vitro; and the approximate (approx.) IC50

Data set [1] concerns hepcidin (Hamp1) mRNA in liver. Briefly: In vivo hepcidin knockdown in mouse liver (mRNA-qPCR), LNP569 Hamp254 18-mers. Particulars: 1×3 mg/kg i.v., 48 h (day 2). The procedure:
PBS: phosphate-buffered saline (negative control). This experiment was performed in vivo in the mouse. These were single 3 mg/kg dose i.v., and Hepcidin mRNA knockdown in liver was measured after 2 and 7 days.
LNP569 is a lipid nanoparticle preparation of the RNAi agent.
Two timepoints—48 and 168 hrs post-injection (both 3 mg/kg).
Assess hepcidin knockdown in liver (mRNA-qPCR)
Background: Quantitative PCR measures a nucleic acid by following its amplification.

“Also recorded” adds a separate entry of the source.

“1 (sense GACAGUAUUCUCAGUGCU; antisense AGCACUGAGAAUACUGU; chemical modifications, end caps, chemistry not fully specified) [compound 1]”: in the data set on human APOC3, the “% Res mRNA_Huh7_15 nM” value is 5.8%. Same read-out and setting: the result for “3 (sense GACAGUAUUCUCAGUGCU; antisense AGCACUGAGAAUACUUC; chemical modifications, end caps, chemistry not fully specified) [compound 3]” reads 11.3%; that for “4 (sense GACAGUAUUCUCAGUGCU; antisense AGCACUGAGAAUACGUC; chemical modifications, end caps, chemistry not fully specified) [compound 4]”, 9.5%; that for “5 (sense GACAGUAUUCUCAGUGCU; antisense AGCACUGAGAAUAUGUC; chemical modifications, end caps, chemistry not fully specified) [compound 5]”, 25.6%. The same measure, in the same setting: the result for “6 (sense GACAGUAUUCUCAGUGCU; antisense AGCACUGAGAAUCUGUC; chemical modifications, end caps, chemistry not fully specified) [compound 6]” reads 33.1%; that for “7 (sense GACAGUAUUCUCAGUGCU; antisense AGCACUGAGAAACUGUC; chemical modifications, end caps, chemistry not fully specified) [compound 7]”, 22%. As for “8 (sense GACAGUAUUCUCAGUGCU; antisense AGCACUGAGAUACUGUC; chemical modifications, end caps, chemistry not fully specified) [compound 8]”, in the data set on human APOC3, the “% Res mRNA_Huh7_15 nM” value stood at 23.8%.

For “9 (sense GACAGUAUUCUCAGUGCU; antisense AGCACUGAGAUACUGUC; siRNA; 2'-modified nucleotides, phosphates, 3' end caps, further chemistry not given here) [compound 9]”, in the data set on human APOC3, the “% Res mRNA_Huh7_15 nM” value was 56.7%. The same measure, in the same setting: next, “10 (sense GACAGUAUUCUCAGUGCU; antisense AGCACUGAAAUACUGUC; siRNA; modified with OMe, F, MOE, ribitol spacers, code 006 undefined, further chemistry not given here) [compound 10]”: 55%; “11 (sense GACAGUAUUCUCAGUGCU; antisense AGCACUGGAAUACUGUC; siRNA; modified with OMe, F, MOE, ribitol spacers, code 006 undefined, further chemistry not given here) [compound 11]”: 22.3%. Same read-out and setting: the result for “12 (sense GACAGUAUUCUCAGUGCU; antisense AGCACUAGAAUACUGUC; siRNA; modified with OMe, F, MOE, ribitol spacers, code 006 undefined, further chemistry not given here) [compound 12]” reads 10.5%. Still for that read-out and setting: next, “13 (sense GACAGUAUUCUCAGUGCU; antisense AGCACGAGAAUACUGUC; siRNA; modified with OMe, F, MOE, DNA, ribitol spacers, code 006 undefined, further chemistry not given here) [compound 13]”: 4.4%. As to “14 (sense GACAGUAUUCUCAGUGCU; antisense AGCAUGAGAAUACUGUC; siRNA; modified with OMe, F, MOE, ribitol spacers, code 006 undefined, further chemistry not given here) [compound 14]”, the “% Res mRNA_Huh7_15 nM” value with human APOC3 is 3.2%.

For “15 (sense GACAGUAUUCUCAGUGCU; antisense AGCCUGAGAAUACUGUC; siRNA; modified with OMe, F, MOE, ribitol spacers, code 006 undefined, further chemistry not given here) [compound 15]”, the “% Res mRNA_Huh7_15 nM” value in the data set on human APOC3 is 18.3%.

As to “16 (sense GACAGUAUUCUCAGUGCU; antisense AGACUGAGAAUACUGUC; siRNA; modified with OMe, F, MOE, ribitol spacers, code 006 undefined, further chemistry not given here) [compound 16]”, the “% Res mRNA_Huh7_15 nM” value in the data set on human APOC3 was found to be 6.8%.

As to “17 (sense GACAGUAUUCUCAGUGCU; antisense ACACUGAGAAUACUGUC; chemical modifications, end caps, chemistry not fully specified) [compound 17]”, in the data set on human APOC3, the “% Res mRNA_Huh7_15 nM” value is listed as 57.4%. Still for that read-out and setting: next, “18 (sense GACAGUAUUCUCAGUGCU; antisense GCACUGAGAAUACUGUC; chemical modifications, end caps, chemistry not fully specified) [compound 18]”: 7.6%; “19 (sense GACAGUAUUCUCAGUGCU; antisense AGCACUGAGAAUACUGUC; chemical modifications, end caps, chemistry not fully specified) [compound 19]”: 6.3%. Same read-out and setting: next, “20 (sense GACAGUAUUCUCAGUGCU; antisense AGCACUGAGAAUACUGUC; siRNA; chemical modifications, end caps, further chemistry not given here) [compound 20]”: 9.7%; “21 (sense GpGpApC004pApGpU004pApU004pU004pC004pU004pC004pApGpU004pGpC004pU004pU002pU002; antisense ApGpCpApCpU004pGpApGpApApU004pApCpU004pGpU004pCpCpU002pU002; chemical modifications, as printed in the source, key not given here) [compound 21]”: 6.5%. `C1C2CC3CC1CC(C2)C3` [Adamantane, adamantane]: the “ability to mediate RNA interference” value in the data set on FVII (Factor VII) is on record as “allow the RNAi agent to perform RNA interference”. Regarding `OCCCCCCO` [C6, 1,6-hexane-diol], the “ability to mediate RNA interference” value in the data set with FVII (Factor VII) was “allow the RNAi agent to perform RNA interference”. In addition, the “Hepcidin KD at 5 nM in vitro (%)” value with Hepcidin (HAMP) mRNA was 66%. Besides, the “Hepcidin knockdown in vivo at 48 hours post-dose” value in data set [1] was “more efficacious than the 21-mer format; also recorded: able to mediate Hepcidin knockdown”. For the molecule `OCCOCCOCCO` [Triethylene glycol, triethylene glycol], in the data set on FVII (Factor VII), the “ability to mediate RNA interference” value was “allow the RNAi agent to perform RNA interference”. Turning to `COc1ccc(C(OCc2cc(Br)cc(CO)c2)(c2ccccc2)c2ccc(OC)cc2)cc1` [compound 2, (3-((bis(4-methoxyphenyl)(phenyl)methoxy)methyl)-5-bromophenyl)methanol], the “% Res mRNA_Huh7_15 nM” value with human APOC3 was 3.4%.

The values are drawn from US9988627B2, “Formats for organic compounds for use in RNA interference” (NOVARTIS AG, priority 2013, dated 2018).
